Data set [1] can be described thus: Viscosity responsiveness: fluorescence emission spectra of probes in glycerol and methanol. The settings on record: for Emission wavelength: excited at maximum excitation wavelength of each probe; for Fluorescence ratio in glycerol to methanol: probe 1×10^−5 M. The class given is physicochemical. Summed up: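 Each probe, from a 1×10^−2 M DMSO stock, was diluted to a final 1×10^−5 M in glycerol and in methanol. Fluorescence emission spectra were then recorded under identical conditions at each probe's maximum excitation wavelength.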

The nature of data set [2]: Fluorescence of free probe prior to binding to a protein tag. The format is physicochemical.
Data set [3] concerns the target T1, SNAP protein tags (Homo sapiens, UniProt P16455, A127T/A154D/C150Q/C62A/E30R/G131K/G132T/G153L/K125A/K32I/L33F/M134L/N157G/Q115S/Q116H/R128A/R135S/S151G/S152D/S159E).
T1 sequence (P16455 1-182 E30R/K32I/L33F/C62A/Q115S/Q116H/K125A/A127T/R128A/G131K/G132T/M134L/R135S/C150Q/S151G/S152D/G153L/A154D/N157G/S159E): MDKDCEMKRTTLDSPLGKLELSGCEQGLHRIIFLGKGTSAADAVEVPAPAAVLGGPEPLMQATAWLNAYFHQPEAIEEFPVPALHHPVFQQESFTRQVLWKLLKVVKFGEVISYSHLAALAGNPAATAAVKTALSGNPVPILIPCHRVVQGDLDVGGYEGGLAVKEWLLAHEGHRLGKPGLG
Briefly: Fluorescence activation of probe after incubation with corresponding protein tag (SNAP). The format is biochemical. The following applies: probe 5 μM, protein tag 10 μM, 37° C., 1 hr. Summed up:
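Probe (5 μM final) mixed with CLIP or SNAP protein tag (10 μM final) and incubated 1 hr at 37° C. Fluorescence intensity change measured by fluorescence spectrophotometer, with quantum yield of tag-bound probe determined.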

Data set [4] concerns HeLa cells with stable expression of protein tags. As to the kind of experiment: Labeling of HeLa cells expressing protein tags vs HeLa-WT cells, confocal imaging. The class given is cell-based. The settings on record: probe 5 μM, 37° C., 2 hrs. As for the experimental part: HeLa cells with stable expression of protein tags and HeLa-WT cells (HeLa primitive cells, with no protein tag expressed) were implanted in a 14 mm glass-bottom 96-well cell culture plate and stabilized for 10 hrs. Probes 1, 15, 21, 30, 56, 60, 63, 88 were added to the media, respectively and diluted to 5 μMs. The cells were incubated in a carbon dioxide incubator at 37° C. for 2 hrs, and then a Leica TPS-8 confocal microscopy was used to image the fluorescent changes of the labeled cells. […] However, for HeLa cells with protein tags expressed shown by group A in FIG. 12, strong fluorescent signals could be detected, which are nearly 300 times stronger.

In data set [5] the test system is HeLa cells. As to the kind of experiment: Labeling of organelle-localized protein tags in HeLa cells without washing. The format is cell-based. The following applies: 0.2 μM probe, 2 hrs, no washing. An excerpt: To verify that probes 1, 21, 48, 60, 66 and 77 can be used to label target proteins located by different organelles, HeLa cells were taken as an example to detect the effect of probes on labeling different subcellular proteins. HeLa cells were implanted 5000 cells per well in a 96-well glass-bottom cell culture plate. 14 hrs later, the cells were transfected with the plasmids encoding different organelle localized protein tags using Lipo2000; the original medium was removed 24 hrs after transfection, washed with a phenol-free red DMEM medium twice, and incubated with a phenol-free red medium containing 0.2 μM probes for 2 hrs, and then the cell labeling effects were detected by imaging with a leica TCS-8 confocal microscopy.

In data set [6] the test system is fusion protein CX43-SNAP. Briefly: Tracing assembly of CX43-SNAP intercellular channels in HeLa cells. The settings on record: probe 21 2 μM 1 hour first, then probe 1 1 μM. The format is cell-based. From the text:
To verify that the probe of the present invention can be used to monitor the assembly and degradation process of biological macromolecules in mammalian cells in real time, the process of tracing the assembly of intercellular protein CX43 to form intercellular channels in mammalian cells by the probe was detected by taking HeLa cells as an example. The C-terminal of CX43 gene was fused with SNAP gene, and HeLa cell line with stable expression of fusion protein CX43-SNAP was constructed and obtained by lentivirus infection technology. HeLa-CX43-SNAP cell lines were implanted in a 20 mm glass-bottom cell culture dish 10 hrs before the probe labeling. To conduct labeling, a phenol-free red DMEM medium was first used to dilute the probe 21 to 2 μM to replace the original cell culture medium. Cells were incubated in a carbon dioxide incubator at 37° C. for 1 hour. The cells were then washed twice using a fresh phenol-free red DMEM medium, with unbound probe 21 removed at 2-minute intervals. Then, DMEM phenol-free red culture medium containing 1 μM probe 1 was added to label cells. Leica SP8 confocal microscopy was used to monitor for a long time the fluorescence intensity and position changes of labeled cell samples at the corresponding fluorescence channels of probes 21 and 1, as shown in FIGS. 17A and 17B, respectively. […]

The subject of data set [7] is SNAP-IAA17-H2B protein. Briefly: Fluorescence change on AID-induced degradation of SNAP-IAA17-H2B in HeLa cells. The format is cell-based. The settings on record: 1 μM probe; 120 min after indoleacetic acid. From the text: To verify the correlation between the fluorescent activation of the probe of the present invention and the existence of proteins, SNAP protein in mammalian cells was taken as an example, and the fluorescence changes of SNAP protein binding probes after protein degradation were detected in HeLa cells by taking AID degradation system as an example. Firstly, HeLa cells were implanted 20,000/cm^2 in a 20 mm glass-bottom cell culture dish, and 14 hrs later, plasmids pcdna3.1-TIR1 and pcdna3.1-SNAP-IAA17-H2B were transfected by invitrogen's lipofectmain2000 transfection reagent. 24 hrs after the cell transfection, the original cell culture medium was replaced with a phenol-free red DMEM medium containing 1 μM of probe 21 to label the cells. The cell samples were incubated in a carbon dioxide incubator at 37° C. for 1 hour. After the labeling was completed, the fluorescence signal of labeled cells was detected by imaging with a Leica SP8 laser confocal microscopy, and indoleacetic acid (IAA) was added to induce SNAP-IAA17-H2B protein to degrade, and the cell fluorescence changes were detected during the protein degradation. […] When proteins exist, the fluorescence is activated, and when proteins are degraded, the fluorescence disappears, which can be used to track and monitor the degradation process of target proteins.

Data set [8] deals with T2, SNAP protein tag (Homo sapiens, UniProt P16455, A127T/A154D/C150Q/C62A/E30R/G131K/G132T/G153L/K125A/K32I/L33F/M134L/N157G/Q115S/Q116H/R128A/R135S/S151G/S152D/S159E).
T2 construct: expressed in transfected cells; host or cells: mouse liver after tail-vein plasmid injection
T2 sequence (P16455 1-182 E30R/K32I/L33F/C62A/Q115S/Q116H/K125A/A127T/R128A/G131K/G132T/M134L/R135S/C150Q/S151G/S152D/G153L/A154D/N157G/S159E): T1 sequence (P16455 1-182 E30R/K32I/L33F/C62A/Q115S/Q116H/K125A/A127T/R128A/G131K/G132T/M134L/R135S/C150Q/S151G/S152D/G153L/A154D/N157G/S159E)
Briefly: In vivo labeling of SNAP protein tag expressed in mouse liver. The following applies: mice, tail vein injection, 6 hrs after probe. As for the experimental part:
(§1) First, a SNAP protein tag expressing plasmid, pcdna3.1-SNAP (sample group), and a control plasmid without SNAP protein tag expressing, pcdna3.1-CAT (control group), were introduced into mice. This method dissolves plasmids in a large volume of solution and rapidly injects them into mice through tail vein injection. The mouse liver and kidneys absorb DNA and then express the target protein. 20 hrs after plasmid injection, 0.4 μM probe 88 dissolved in 200 μl PBS was injected into mice through tail vein injection to label the SNAP protein tag. 6 hrs later, the mice were dissected, and the fluorescence differences in the liver parts of different mouse samples were detected by KODAK multi-spectral in vivo imaging system. The liver fluorescence of the control plasmid pcdna3.1-CAT injected with probe 88 was very low, close to the background fluorescence level of the blank liver without the probe, while the liver of SNAP plasmid pcdna3.1-SNAP injected with probe 88 had strong fluorescence, and the signal intensity was more than 20 times higher than that of the control group.

Data set [9] deals with SNAP protein tag. Described as above. The settings on record: mice, tail vein injection, 6 hrs after probe. The procedure:
as §1

Where only a bound is given, the exact number is not on record here.

With `CN(CCOC(=O)NCc1ccc(COc2nc(N)nc3[nH]cnc23)cc1)c1ccc(/C=C(\C#N)C(=O)OC(C)(C)C)cc1` [probe 1], in data set [1], the Emission wavelength is given as 480 nm and the “Fluorescence ratio in glycerol to methanol” value (“Fluorescence ratio” for short) was 560. Further, in data set [2], the “Quantum yield of free probe” value is below 0.001. Moreover, in data set [3], the Fluorescence activation multiple is 360 and the “Quantum yield of probe bound to protein tag” value (shortened to “Quantum yield of probe bound”) came out at 0.35. In data set [4], the “Fluorescence signal in HeLa-WT cells (no protein tag expressed)” value is “no corresponding fluorescence signal was detected” and the “Fluorescent signal in HeLa cells with protein tags expressed, relative to HeLa-WT” value (“Fluorescent signal … relative to HeLa-WT” below) is recorded as around 300 times. In data set [5], the “Labeling of subcellular organelle structures” value is given as “clearly display a variety of subcellular organelle structures without washing”. In addition, the “Fluorescence signal at intercellular channels” value in [6] is “appeared and gradually increased at the edge of intercellular channels”.
Consider `CN(CCOC(=O)NCc1ccc(COc2nc(N)nc3[nH]cnc23)cc1)c1cc2sc(/C=C(\C#N)C(=O)OC(C)(C)C)cc2s1` [probe 21], for which, in [1], the Emission wavelength is listed as 555 nm and the “Fluorescence ratio” value is 1481. Besides, in data set [2], the “Quantum yield of free probe” value is reported as below 0.001. In data set [3], the Fluorescence activation multiple amounted to 560 and the “Quantum yield of probe bound” value amounted to 0.48. Moreover, in [4], the “Fluorescence signal in HeLa-WT cells (no protein tag expressed)” value is “no corresponding fluorescence signal was detected” and the “Fluorescent signal … relative to HeLa-WT” value is around 300 times. For the same compound, the “Labeling of subcellular organelle structures” value in data set [5] is given as “clearly display a variety of subcellular organelle structures without washing”. In addition, the “Fluorescence signal after indoleacetic acid-induced protein degradation” value in [7] was “basically invisible”. Also, the “Fluorescence signal at intercellular channels” value in data set [6] is reported as “long-columnar specific fluorescence signal between two cells”.
`CC1=CC(C)(C)N(CCOC(=O)NCc2ccc(COc3nc(N)nc4[nH]cnc34)cc2)c2ccc(/C=C(\C#N)c3nc4ccccc4o3)cc21` [probe 88]: in [1], the Emission wavelength is reported as 595 nm and the “Fluorescence ratio” value stood at 298. The “Quantum yield of free probe” value in data set [2] was below 0.001. Besides, in data set [3], the Fluorescence activation multiple is 621 and the “Quantum yield of probe bound” value worked out at 0.29. In [4], the “Fluorescence signal in HeLa-WT cells (no protein tag expressed)” value is given as “no corresponding fluorescence signal was detected” and the “Fluorescent signal … relative to HeLa-WT” value is around 300 times. Besides, in data set [8], the “Liver fluorescence signal intensity of pcdna3.1-SNAP group relative to control group” value is given as “more than 20 times”. In addition, the “Liver fluorescence of control plasmid pcdna3.1-CAT group” value in data set [9] is “very low”.

The values are drawn from patent US11209437B2, “Fluorescent probe and preparation method and use thereof” (Fluorescence Diagnosis (shanghai) Biotech Company Ltd., priority 2016, dated 2021).
